Key:
[1] = test system: human breast cancer cells (MCF-7); experiment: MTT cytotoxicity assay, MCF-7; type: cell-based; conditions: Homo sapiens, MCF7; MCF-7, MTT, 48 h
Excerpt: (§1) In the study, five cancer cell lines (human colon cancer cells (HT-29), gastric cancer cells (BGC-823), cervical cancer cells (Hela), human breast cancer cells (MCF-7), and human lung cancer cells A549)), and two normal cell lines (human gastric epithelial cells (GES-1) and human ovarian epithelial cells (IOSE144)) were used for the evaluation of biological activity. IOSE144 cells were donated by Professor Piao Huri of Yanbian University, all other cells were purchased from the American Type Culture Collection (ATCC, Manassas, VA, USA). Cells were cultured in Dulbecco’s Modified Eagle’s Medium (DMEM), supplemented with 10% heat-inactivated fetal bovine serum (FBS), 1% 100 μg/mL penicillin and 100 μg/mL streptomycin in a humidified atmosphere containing 5% CO2 at 37 °C. Cell viability was measured using the MTT assay. Cells were seeded in 96 well microtiter plates in a volume of 100 μL medium. All compounds tested were dissolved and further diluted in DMSO. After overnight incubation, cells were treated with different test concentrations or carrier solvents alone in a final volume of 100 μL with five replicates each. […] Cells were treated with compound (80, 40, 20, 10, 5 μM) for 48 h. Then, 10 μL of MTT (5 mg/mL) was added to each well and the cells were incubated at 37 °C in the dark for 4 h. Supernatants were removed and formazan crystals were dissolved in DMSO (100 μL/well). The solution was agitated for 10 min, and the absorbance was measured at 490 nm using microplate reader (imark, BIO-RAD, Hercules, CA, USA) to calculate the 50% inhibitory concentration (IC50). Ginsenoside-Rg3, panaxadiol sapogenin (PD), AD-2 (25-OH-PPD) and AD-1 (25-OCH3-PPD) were used as standard reference compounds.

[2] = test system: five cancer cell lines (HT-29, BGC-823, Hela, MCF-7, A549); experiment: Cytotoxic activity on five cancer cell lines (overall statement); type: cell-based, human; conditions: MTT
Excerpt: as §1

[3] = MTT cytotoxicity assay, GES-1 normal cells; type: cell-based, human; conditions: human
Excerpt: as §1

[4] = test system: human lung cancer cells A549; experiment: MTT cytotoxicity assay, A549; type: cell-based; conditions: Homo sapiens, 48 h
Excerpt: as §1

[5] = test system: gastric cancer cells (BGC-823); experiment: MTT cytotoxicity assay, BGC-823; type: cell-based, human; conditions: Homo sapiens; BGC-823, MTT, 48 h
Excerpt: as §1

[6] = test system: human colon cancer cells (HT-29); experiment: MTT cytotoxicity assay, HT-29; type: cell-based; conditions: Homo sapiens; HT-29, MTT, 48 h
Excerpt: as §1

[7] = test system: cervical cancer cells (Hela); experiment: MTT cytotoxicity assay, Hela; type: cell-based, human; conditions: Homo sapiens, 48 h
Excerpt: as §1

[8] = MTT cytotoxicity assay, IOSE144 normal cells; type: cell-based, human; conditions: human
Excerpt: as §1

[9] = parameters: method as in earlier work; conditions: stronger than ginsenoside-Rg3; cited from earlier work
[10] = test system: MCF-7 cells; experiment: Wound healing assay; type: cell-based, human; conditions: MCF-7, 30 μM, 24 h, serum-free
Method: MCF-7 cells were seeded in 10-cm dishes at a concentration of 1 × 10^5 cells/ mL and grown overnight. Then, a wound was created in the monolayer of cells by scratching the monolayer with a sharp tip followed by another 24 h of incubation in the presence of 30 μM of compound 3b or 0.1% DMSO under serum-free conditions, 30 μM of AD-1 as a positive control. The gap created was measured under a microscope to provide an indication of the wound healing capability of the cells.

[11] = test system: MCF-7 cells; experiment: Cell cycle distribution assay, MCF-7; type: cell-based, human; conditions: MCF-7, 30 μM, 24 h; controls 0.73% (3b) and 1.69% (AD-1)
Method: MCF-7 cells treated with 30 μM of compound 3b were incubated for 24 h in CO2 incubator. AD-1 was tested as a positive control, and the experimental concentration of AD-1 was 30 μM. Cells were trypsinized, harvested, washed with PBS, and fixed with 75% ethanol overnight at −20 °C. Next, fixed cells were washed with PBS and stained for 4 h in the dark with a PI solution consisting of 50 μg/mL PI, 50 μg/mL RNase, 0.1% sodium citrate and 0.1% Triton X-100 (pH 8.0). Cell cycle distribution was determined using FACScan (Becton Dickinson, Franklin Lakes, NJ, USA).

[12] = test system: IOSE144 cells; experiment: Cell cycle distribution assay, IOSE144; type: cell-based, human; conditions: IOSE144, 24 h; control 1.17%
[13] = GES-1 gastric epithelial cells (normal cell line), GES-1 normal cells, MTT, 48 h, read-out: IC50
[14] = IOSE144 ovarian epithelial cells (normal cell line), IOSE144 normal cells, MTT, 48 h, read-out: IC50

CC(=O)Oc1ccccc1C(=O)OC1CCC2(C)C(CCC3(C)C2CC(O)C2C(C(C)(O)CCCC(C)(C)O)CCC23C)C1(C)C (stereo not drawn) [Compound 8b]
IC50 [1]: 14.7 ± 0.24 µM
anticancer activity (in words) [2]: strong anticancer activity
IC50 at 48 h [3]: > 100 µM
melting point: 254 to 256 °C
IC50 [4]: 6.12 ± 0.1 µM
IC50 [5]: 10.2 ± 0.29 µM
IC50 [6]: 13.25 ± 0.05 µM
IC50 [7]: 10 ± 0.53 µM
IC50 at 48 h [8]: > 100 µM

CC(C)(CCCC(C)(O)C1CCC2(C)C1C(OC(=O)c1ccccc1O)CC1C3(C)CCC(OC(=O)c4ccccc4O)C(C)(C)C3CCC12C)OC(=O)c1ccccc1O [Compound 1a, 20(R)-Dammarane-20-hydroxy-3β,12β,25-tri-yl-2′-hydroxybenzoate]
IC50 [1]: 20.31 ± 0.11 µM
anticancer activity (in words) [2]: strong anticancer activity
IC50 at 48 h [3]: > 100 µM
melting point: 192 to 194 °C
IC50 [4]: 15.69 ± 0.1 µM
IC50 [5]: 11.8 ± 0.21 µM
IC50 [6]: 9.23 ± 0.08 µM
IC50 [7]: 3.23 ± 0.34 µM
IC50 at 48 h [8]: > 100 µM

CC(=O)Oc1ccccc1C(=O)OC1CCC2(C)C(CCC3(C)C2CC(OC(=O)c2ccccc2O)C2C(C4(C)CCCC(C)(C)O4)CCC23C)C1(C)C [Compound 1b, 20(R)-Pananxadiol-3β-yl-2′-acetylbenzoate-12β-yl-2′-hydroxybenzoate]
IC50 [1]: 7.65 ± 0.29 µM
anticancer activity (in words) [2]: strong anticancer activity
IC50 at 48 h [3]: > 100 µM
melting point: 198 to 200 °C
IC50 [4]: 13.26 ± 0.11 µM
IC50 [5]: 9.65 ± 0.61 µM
IC50 [6]: 12.2 ± 0.28 µM
IC50 [7]: 11.3 ± 0.14 µM
IC50 at 48 h [8]: > 100 µM

CC(C)(O)CCC[C@@](C)(O)C1CC[C@]2(C)C1[C@H](O)CC1[C@@]3(C)CC[C@H](O)C(C)(C)C3CC[C@]12C (stereo partly drawn) [AD-2, 25-hydroxyprotopanaxadiol, reference compound]
antitumor activity compared with ginsenoside-Rg3 [9]: 5–15 fold
IC50 [1]: 49.6 ± 1.35 µM
IC50 at 48 h [3, 13]: > 100 µM
IC50 [4]: 34.3 ± 0.87 µM
IC50 [5]: 44.2 ± 1.06 µM
IC50 [6]: 18.7 ± 0.28 µM
IC50 [7]: 48.6 ± 1.24 µM
IC50 at 48 h [8, 14]: > 100 µM

COC(C)(C)CCC[C@@](C)(O)C1CC[C@]2(C)C1[C@H](O)CC1[C@@]3(C)CC[C@H](O)C(C)(C)C3CC[C@]12C (stereo partly drawn) [AD-1, 25-methoxyprotopanaxadiol, reference compound]
antitumor activity compared with ginsenoside-Rg3 [9]: 5–15 fold
IC50 [1]: 7.34 ± 0.19 µM
IC50 at 48 h [3, 13]: > 100 µM
IC50 [4]: 34.32 ± 0.31 µM
MCF-7 cell migration (wound distance) [10]: inhibited the migration of MCF-7 cells
IC50 [5]: 16.6 ± 0.45 µM
subG1 phase after treatment [11]: 38.45%
IC50 [6]: 16.6 ± 0.25 µM
IC50 [7]: 12.99 ± 0.06 µM
IC50 at 48 h [8, 14]: > 100 µM

COC(C)(C)CCCC(C)(O)C1CCC2(C)C1C(OC(=O)c1ccccc1O)CC1C3(C)CCC(O)C(C)(C)C3CCC12C [Compound 3a, 20(R)-25-Methoxydammarane-3β,20-diol-12β-yl-2′-hydroxybenzoate]
IC50 [1]: 5.34 ± 0.04 µM
anticancer activity (in words) [2]: strong anticancer activity
IC50 at 48 h [3]: > 100 µM
melting point: 235 to 237 °C
IC50 [4]: 13 ± 0.25 µM
IC50 [5]: 15.1 ± 0.24 µM
IC50 [6]: 10.5 ± 0.25 µM
IC50 [7]: 9.78 ± 0.03 µM
IC50 at 48 h [8]: > 100 µM

CC(C)(O)CCCC(C)(O)C1CCC2(C)C1C(OC(=O)c1ccccc1O)CC1C3(C)CCC(OC(=O)c4ccccc4O)C(C)(C)C3CCC12C [Compound 7a, 20(R)-Dammarane-20, 25-diol-3β, 12β-di-yl-2′-hydroxybenzoate]
IC50 [1]: 29.1 ± 0.69 µM
anticancer activity (in words) [2]: strong anticancer activity
IC50 at 48 h [3]: > 100 µM
melting point: 197 to 199 °C
IC50 [4]: 8.52 ± 0.15 µM
IC50 [5]: 70.6 ± 2.12 µM
IC50 [6]: 22.7 ± 0.46 µM
IC50 [7]: 35.2 ± 1.24 µM
IC50 at 48 h [8]: > 100 µM

CC(=O)Oc1ccccc1C(=O)OC1CC2C3(C)CCC(OC(=O)c4ccccc4OC(C)=O)C(C)(C)C3CCC2(C)C2(C)CCC(C3(C)CCCC(C)(C)O3)C12 [Compound 2b, 20(R)-Pananxadiol-3β, 12β-di-yl-2′-acetylbenzoate]
IC50 [1]: 10.25 ± 0.05 µM
anticancer activity (in words) [2]: strong anticancer activity
IC50 at 48 h [3]: > 100 µM
melting point: 238 to 240 °C
IC50 [4]: 15.47 ± 0.13 µM
IC50 [5]: 8.12 ± 0.25 µM
IC50 [6]: 5.27 ± 0.14 µM
IC50 [7]: 16.2 ± 0.34 µM
IC50 at 48 h [8]: > 100 µM

COC(C)(C)CCCC(C)(O)C1CCC2(C)C1C(OC(=O)c1ccccc1O)CC1C3(C)CCC(OC(=O)c4ccccc4O)C(C)(C)C3CCC12C [Compound 2a, 20(R)-25-Methoxydammarane-20-hydroxy-3β,12β-di-yl-2′-hydroxybenzoate]
IC50 [1]: 25.7 ± 0.43 µM
IC50 at 48 h [3]: > 100 µM
melting point: 200 to 202 °C
IC50 [4]: 26.45 ± 0.14 µM
IC50 [5]: 40.9 ± 0.45 µM
IC50 [6]: 32.58 ± 0.23 µM
IC50 [7]: 16.5 ± 0.23 µM
IC50 at 48 h [8]: > 100 µM

CC(=O)OC1CCC2(C)C(CCC3(C)C2CC(OC(=O)c2ccccc2O)C2C(C4(C)CCCC(C)(C)O4)CCC23C)C1(C)C [Compound 4b, 20(R)-Pananxadiol-3β-o-acetyl-12β-yl-2′-hydroxybenzoate]
IC50 [1]: 39.4 ± 0.68 µM
IC50 at 48 h [3]: > 100 µM
melting point: 238 to 240 °C
IC50 [4]: 25.4 ± 0.77 µM
IC50 [5]: 50.26 ± 0.39 µM
IC50 [6]: 36.12 ± 0.28 µM
IC50 [7]: 48.75 ± 0.37 µM
IC50 at 48 h [8]: > 100 µM

CC(=O)Oc1ccccc1C(=O)OC1CCC2(C)C(CCC3(C)C2CC(O)C2C(C4(C)CCCC(C)(C)O4)CCC23C)C1(C)C (stereo not drawn) [Compound 3b]
IC50 [1]: 2.56 ± 0.09 µM
anticancer activity (in words) [2]: strong anticancer activity
IC50 at 48 h [3]: > 100 µM
melting point: 243 to 245 °C
IC50 [4]: 14.37 ± 0.04 µM
IC50 [5]: 11.2 ± 0.16 µM
subG1 phase after treatment [11]: 56.95%
subG1 phase after treatment [12]: 7.58%
IC50 [6]: 10.7 ± 0.12 µM
IC50 [7]: 20.9 ± 0.54 µM
IC50 at 48 h [8]: > 100 µM

Source: publication PMC6278399, “Synthesis and Anticancer Activity Evaluation of Hydrolyzed Derivatives of Panaxnotoginseng Saponins” (Molecules, 2018)
